Laboratory results from PMC5691623 (Viruses, 2017).

Tested on: SFV vector VA7-mCherry
Test: Live microscopy of SFV infection in Pa02C pancreatic cancer cells
Assay type: cell-based, Semliki Forest virus
Conditions: 1 µM, low moi (0.01), 96 h

CC1(C)CCC(c2ccc(Cl)cc2)=C(CN2CCN(c3ccc(C(=O)NS(=O)(=O)c4ccc(N[C@H](CCN5CCOCC5)CSc5ccccc5)c(S(=O)(=O)C(F)(F)F)c4)cc3)CC2)C1 [ABT-263]
effect on replication and spread of SFV: attenuated the replication and spread of the virus
